Experimental data as given in ChEMBL document CHEMBL1201862, “PubChem BioAssay data set” (2004).
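Grown in 96-well plates, cells were treated for 48 hours with each compound at five concentrations. Insufficient inhibition: endpoint recorded as highest concentration tested. Abbreviation: GI50, concentration required for 50% inhibition of growth.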 Active and inactive are the calls of the source. Cut-off read from the data, not from the text of the source: active = GI50 up to about 1.1 µM and inactive = higher.

Tests used:
Assay in all cases: NCI tumour cell line growth inhibition, 48 h
DU-145 = test system: DU-145
HT-29 = test system: HT-29
MCF7 = test system: MCF7
UACC-257 = test system: UACC-257
COLO 205 = test system: COLO 205
A549 = test system: A549
UACC-62 = test system: UACC-62
HOP-62 = test system: HOP-62
UO-31 = test system: UO-31
EKVX = test system: EKVX
KM12 = test system: KM12
HCT-116 = test system: HCT-116
SF-295 = test system: SF-295
RPMI-8226 = test system: RPMI-8226
MOLT-4 = test system: MOLT-4
SNB-75 = test system: SNB-75
SK-MEL-28 = test system: SK-MEL-28
TK-10 = test system: TK-10
HOP-92 = test system: HOP-92
SF-539 = test system: SF-539

Measured: GI50

COC(=O)c1c(C)cccc1/C=C1/Cc2c(C)cccc2C1=O
inactive: DU-145 > 100 µM | HT-29 > 100 µM | MCF7 8.97 µM | UACC-257 3.1 µM | COLO 205 > 10 µM | A549 > 100 µM | UACC-62 > 100 µM | HOP-62 > 100 µM | UO-31 > 100 µM | EKVX > 100 µM | KM12 > 100 µM | HCT-116 > 100 µM | SF-295 > 100 µM | RPMI-8226 3.44 µM | MOLT-4 > 100 µM | SNB-75 > 100 µM | SK-MEL-28 > 100 µM | TK-10 > 100 µM | HOP-92 58.1 µM | SF-539 > 100 µM

O=C(CNc1ccccc1C(=O)O)Nn1cnc2ccc(S(=O)(=O)Nc3ccccc3C(=O)O)cc2c1=O
inactive: DU-145 > 100 µM | HT-29 > 100 µM | MCF7 > 100 µM | UACC-257 > 100 µM | COLO 205 > 100 µM | A549 > 100 µM | UACC-62 > 100 µM | HOP-62 > 100 µM | UO-31 > 100 µM | EKVX > 100 µM | KM12 > 100 µM | HCT-116 > 100 µM | SF-295 > 100 µM | RPMI-8226 > 100 µM | MOLT-4 > 100 µM | SNB-75 > 100 µM | SK-MEL-28 > 100 µM | TK-10 > 100 µM | HOP-92 > 100 µM | SF-539 > 100 µM

CN(C)c1ccc(/N=N/c2ccccn2)cc1
inactive: DU-145 48.6 µM | HT-29 11.1 µM | MCF7 3.18 µM | UACC-257 3.89 µM | COLO 205 6.58 µM | A549 19.8 µM | UACC-62 33.4 µM | HOP-62 71 µM | UO-31 24.1 µM | EKVX 11.9 µM | KM12 43.1 µM | HCT-116 6.67 µM | SF-295 37 µM | RPMI-8226 11.3 µM | MOLT-4 4.17 µM | SNB-75 52.1 µM | SK-MEL-28 > 100 µM | TK-10 35.7 µM | HOP-92 69.8 µM | SF-539 52.2 µM
